Patent US8957082B2, “Tetrahydropyrrolopyrimidinediones and their use in therapy” (Chiesi Farmaceutici S.p.A, priority 2006, dated 2015)

These compounds were tested against T1, human leukocyte elastase (HNE) (Homo sapiens, UniProt P08246) (assay: HNE inhibitory activity (fluorescent peptide substrate / fluorescently labelled elastin assays)). Details: which of the two substrate assays is not stated.
T1 construct: purchased Sigma E8140
T1 sequence (P08246 30-247 limits assumed): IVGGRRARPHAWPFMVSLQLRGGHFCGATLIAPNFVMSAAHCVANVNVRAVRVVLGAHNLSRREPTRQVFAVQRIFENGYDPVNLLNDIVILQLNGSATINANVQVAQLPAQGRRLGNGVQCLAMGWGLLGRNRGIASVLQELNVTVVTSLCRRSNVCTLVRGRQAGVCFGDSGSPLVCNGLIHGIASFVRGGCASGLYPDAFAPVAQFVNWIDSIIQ
Type: biochemical
Method: Compounds of the invention were tested for their HNE inhibitory activity.
Fluorescent Peptide Substrate
Assays were performed in 96-well plates at a total assay volume of 100 μl. The final concentration of the enzyme (human leukocyte elastase, Sigma E8140) was 0.00036 units/well. A peptide substrate (MeO-Suc-Ala-Ala-Pro-ValAMC, Calbiochem #324745) was used, at the final concentration of 100 μM. The final concentration of DMSO was 1% in the assay buffer (0.05M Tris.HCl, pH 7.5, 0.1M NaCl; 0.1M CaCl2; 0.0005% brij-35).
The enzymatic reaction was started by adding the enzyme. The enzymatic reaction was performed at RT and after 30 mins stopped by adding 50 μl soybean trypsin inhibitor (Sigma T-9003) at a final concentration of 50 μg/well. Fluorescence was read on the FLEXstation (Molecular Devices) using 380 nm excitation and 460 nm emission filters. […] The results are means of two independent experiments, each performed in duplicate.
Using Fluorescently Labelled Elastin
Assays were performed in 96-well plate at a total assay volume of 100 μl. The final concentration of the enzyme (human leukocyte elastase, Sigma E8140) was 0.002 units/well. […]
The enzymatic reaction was started by adding the enzyme. The enzymatic reaction was performed at RT and read after 120 minutes. Fluorescence was read on the FLEXstation (Molecular Devices) using 485 nm excitation and 530 nm emission filters. […]

`CN(CCCN1CC2=C(C1=O)[C@@H](c1ccc(I)cc1)NC(=O)N2c1cccc(C(F)(F)F)c1)CCCN1CC2=C(C1=O)[C@@H](c1ccc(I)cc1)NC(=O)N2c1cccc(C(F)(F)F)c1` [Example 23] was tested. Which IC50 did it give?
The IC50 was 50 to 500 nM.

Each compound was assayed against T2, human neutrophil elastase (HNE) (Homo sapiens, UniProt P08246) (assay: HNE induced lung haemorrhage in the rat). Details: male Sprague Dawley rats, compound dosed locally to the lung (i.t. or i.n.) before HNE, blood in BALF one hour post HNE challenge.
T2 sequence (P08246 30-267): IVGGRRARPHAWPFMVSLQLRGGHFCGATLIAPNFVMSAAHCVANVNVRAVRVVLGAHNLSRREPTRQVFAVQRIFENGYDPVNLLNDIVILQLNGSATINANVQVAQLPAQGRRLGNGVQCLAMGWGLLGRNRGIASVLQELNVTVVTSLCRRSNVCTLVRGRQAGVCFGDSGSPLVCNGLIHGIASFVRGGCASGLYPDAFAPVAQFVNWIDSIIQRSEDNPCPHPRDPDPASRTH
Type: in vivo
From the text: HNE Induced Lung Haemorrhage in the Rat
Instillation of human neutrophil elastase (HNE) into rat lung causes acute lung damage. The extent of this injury can be assessed by measuring lung haemorrhage. Male Sprague Dawley rats (175-220 g) were obtained from Harlan UK Ltd., full barrier-bred and certified free from specified micro-organisms on receipt. Animals were weighed and randomly assigned to treatment groups (7-12 animals per group).
The vehicle used was 1% DMSO/Saline. Inhibitors were dissolved in 1% DMSO before the addition of 0.9% saline.
Animals in each study used to determine the efficacy of the elastase inhibitors delivered locally to the lung by a variety of routes. Rats were anaesthetised with the inhaled anaesthetic isoflurane (4%) when the dose was given from 30 minutes to 6 h prior to human neutrophil elastase ([…]) administration or terminally anaesthetised with hypnorm:hypnovel:water (1.5:1:2 at 2.7 ml/kg) when the predose was given at less than 30 minutes prior to HNE administration and dosed either intratracheally (i.t.) by transoral administration using a Penn Century microsprayer or intranasally (i.n.) by dropping the fluid on to the nares. Animals either received vehicle or compound at a dose volume of 0.5 ml/kg.
Animals that had been allowed to recover after dosing were terminally anaesthetised with hypnorm:hypnovel:water (1.5:1:2 at 2.7 ml/kg). Once sufficiently anaesthetised, HNE (600 units/ml) or sterile saline was administered by transoral tracheal instillation at a volume of 100 μl using a Penn Century microsprayer. Animals were kept warm in a temperature controlled box and given top up doses of anaesthetic as required to ensure continuous anaesthesia until termination.
Animals were sacrificed (0.5 ml to 1 ml sodium pentobarbitone) one hour post HNE challenge. The trachea was exposed and a small incision made between two tracheal rings allowing a cannula (10 gauge, O.D. 2-10 mm, Portex Ltd.) to be inserted approximately 2 cm into the trachea towards the lung. This was secured into place with a cotton ligature. The lungs were then lavaged (BAL) three times with fresh 4 ml aliquots of heparinised (10 units/ml) phosphate buffered saline (PBS). The resultant BALF was kept on ice until it was centrifuged.
The BALF was centrifuged at 1000 r.p.m. for 10 minutes in a centrifuge cooled to between 4 and 10° C. The supernatant was discarded and the cell pellet resuspended in 1 ml 0.1% CETAB/PBS to lyse the cells. Cell lysates were frozen until spectrophotometric analysis for blood content could be made. Standards were prepared by making solutions of whole rat blood in 0.1% CETAB/PBS.
Once defrosted 100 μl of each lysed cell suspension was placed into a separate well of a 96 well flat bottomed plate. All samples were tested in duplicate and 100 μl 0.1% CETAB/PBS was included on the plate as a blank. The OD of the contents of each well was measured at 415 nm using a spectramax 250 (Molecular devices).
A standard curve was constructed by measuring the OD (at 415 nm) of different concentrations of blood in 0.1% CETAB/PBS (30, 10, 7, 3, 1, 0.3, 0.1 μl/ml).
The amount of blood in each experimental sample was calculated by comparison to the standard curve. Data were then analysed as below:
1) The mean OD for duplicates was calculated
2) The value for the blank was subtracted from the value for all other samples
3) Data were assessed to evaluate the normality of distribution.

Which “reducing the quantity of blood haemorrhaged relative to control” value does the source give for `CN(CCCN1CC2=C(C1=O)[C@@H](c1ccc(C#N)cc1)NC(=O)N2c1cccc(C(F)(F)F)c1)CCCN1CC2=C(C1=O)[C@@H](c1ccc(C#N)cc1)NC(=O)N2c1cccc(C(F)(F)F)c1` [Example 17] here?
The value was “effective in reducing the quantity of blood haemorrhaged”.

Which “reducing the quantity of blood haemorrhaged relative to control” value does the source give for `N#Cc1ccc([C@H]2NC(=O)N(c3cccc(C(F)(F)F)c3)C3=C2C(=O)N(CCCNCCCN2CC4=C(C2=O)[C@@H](c2ccc(C#N)cc2)NC(=O)N4c2cccc(C(F)(F)F)c2)C3)cc1.O=CO` [Example 18] here?
The value was “effective in reducing the quantity of blood haemorrhaged”.

For `CCN1CC2=C(C1=O)[C@@H](c1ccc(C#N)cc1)N(CC(=O)NCCNC(=N)NCCNC(=O)CN1C(=O)N(c3cccc(C(F)(F)F)c3)C3=C(C(=O)N(CC)C3)[C@H]1c1ccc(C#N)cc1)C(=O)N2c1cccc(C(F)(F)F)c1` [Example 30], which “reducing the quantity of blood haemorrhaged relative to control” value is on record?
The value was “effective in reducing the quantity of blood haemorrhaged”.

With `C[N+](C)(CCCN1CC2=C(C1=O)[C@@H](c1ccc(C#N)cc1)NC(=O)N2c1cccc(C(F)(F)F)c1)CCCN1CC2=C(C1=O)[C@@H](c1ccc(C#N)cc1)NC(=O)N2c1cccc(C(F)(F)F)c1.[I-]` [Example 32] as the compound, how does the “reducing the quantity of blood haemorrhaged relative to control” value read?
The value was “effective in reducing the quantity of blood haemorrhaged”.

Which “reducing the quantity of blood haemorrhaged relative to control” value does the source give for `C[N+](C)(CCCN1CC2=C(C1=O)[C@@H](c1ccc(C#N)cc1)N(CC(=O)O)C(=O)N2c1cccc(C(F)(F)F)c1)CCCN1CC2=C(C1=O)[C@@H](c1ccc(C#N)cc1)N(CC(=O)O)C(=O)N2c1cccc(C(F)(F)F)c1.O=C([O-])C(F)(F)F` [Example 41] here?
The value was “effective in reducing the quantity of blood haemorrhaged”.

Which “reducing the quantity of blood haemorrhaged relative to control” value does the source give for `N#Cc1ccc([C@H]2NC(=O)N(c3cccc(C(F)(F)F)c3)C3=C2C(=O)N(CCN2CCN(CCN4CC5=C(C4=O)[C@@H](c4ccc(C#N)cc4)NC(=O)N5c4cccc(C(F)(F)F)c4)C2=N)C3)cc1` [Example 43] here?
Its value is “effective in reducing the quantity of blood haemorrhaged”.

With `C[N+](CCCN1CC2=C(C1=O)[C@@H](c1ccc(C#N)cc1)NC(=O)N2c1cccc(C(F)(F)F)c1)(CCCN1CC2=C(C1=O)[C@@H](c1ccc(C#N)cc1)NC(=O)N2c1cccc(C(F)(F)F)c1)CC(=O)[O-]` [Example 49] as the compound, how does the “reducing the quantity of blood haemorrhaged relative to control” value read?
The value was “effective in reducing the quantity of blood haemorrhaged”.

For `C[N+](C)(CCCN1CC2=C(C1=O)[C@@H](c1ccc(C#N)cc1)NC(=O)N2c1cccc(C(F)(F)F)c1)CCCN1CC2=C(C1=O)[C@@H](c1ccc(C#N)cc1)NC(=O)N2c1cccc(C(F)(F)F)c1.O=C[O-]` [Example 59], which “reducing the quantity of blood haemorrhaged relative to control” value is on record?
The value was “effective in reducing the quantity of blood haemorrhaged”.

How did the “reducing the quantity of blood haemorrhaged relative to control” value turn out when `C[N+](C)(CCCCN1CC2=C(C1=O)[C@@H](c1ccc(C#N)cc1)NC(=O)N2c1cccc(C(F)(F)F)c1)CCCOc1ccccc1.[Br-]` [Example 61] was run?
Its value is “effective in reducing the quantity of blood haemorrhaged”.

`C[N+](CCCCN1CC2=C(C1=O)[C@@H](c1ccc(C#N)cc1)NC(=O)N2c1cccc(C(F)(F)F)c1)(CCCOc1ccccc1)CCCOc1ccccc1.O=C[O-]` [Example 64] was tested. Which “reducing the quantity of blood haemorrhaged relative to control” value did it give?
The value was “effective in reducing the quantity of blood haemorrhaged”.

Same assay, conditions: rat, 30 mg/kg it, 1 hour prior to HNE; statistically significant

`C[N+](C)(CCCN1CC2=C(C1=O)[C@@H](c1ccc(C#N)cc1)NC(=O)N2c1cccc(C(F)(F)F)c1)CCCN1CC2=C(C1=O)[C@@H](c1ccc(C#N)cc1)NC(=O)N2c1cccc(C(F)(F)F)c1.[I-]` [Example 32] was tested. Which “reduction in haemorrhage relative to control” value did it give?
The value was 67%.
